Measured values taken from patent US9370537B2, “Compositions and methods for reducing inflammation” (Cerule, LLC, priority 2009, dated 2016).

Test: Case report: menstrual cramps
Type: in vivo, human
Details: person, single dose
Procedure: The anti-inflammatory effect of the 1117 fraction is evidenced by the following: • 1. A person experienced moderate to severe muscle pain after exercising. The person was in otherwise good health, but would consume four Advil after playing tennis. […] A person in good health and with regular menstruation typically experienced a day during menstruation with moderate to severe menstrual cramps. On one occasion, the painful cramps were so severe that they were not relieved by 1 hour heat or 1000 mg Tylenol. […] The relief happened within 5-10 minutes after consumption, and lasted 8 hours. • 3. A person in good health experienced severe, throbbing muscle pain after a 1-hour session of deep tissue massage. The pain was relieved within 30 minutes after consuming a single dose of 500 mg the 1117 fraction.

CC(=O)Nc1ccc(O)cc1 [Tylenol]
effect on severe menstrual cramps and pain: not relieved
